Measurements published in patent US20240425478A1, “CYCLOPENTYLPYRAZOLE CDK2 INHIBITORS” (Genentech, Inc., priority 2021, published 2024).
Read-outs that look alike come from different tables or passages of the source.

Legend:
[1] = biological target: T1, Cyclin Dependent Kinase 1/Cyclin A2 (CDK1-cycA2) (Homo sapiens, UniProt P06493); assay: CDK1-cycA2 TR-FRET (Lance) enzyme assay; type: biochemical; conditions: Table O, enzymatic assay
T1 construct: purchased ProQinase 0134-0054-1
Procedure: (§1) Cyclin Dependent Kinase 1/Cyclin A2 (CDK1-cycA2), Cyclin Dependent Kinase 2/Cyclin E1 (CDK2-cycE1), Cyclin Dependent Kinase 4/Cyclin D3 (CDK4-cycD3) and Cyclin Dependent Kinase 6/Cyclin D3 (CDK6-cycD3) enzyme assays were carried out as described below.
(1) CDK1-cycA2 TR-FRET (Lance®)
(§2) An Echo acoustic dispenser is used to create dose responses of compound dissolved in DMSO into a 384-well microplate. A 5 μL volume of enzyme mix is added to the well, and pre-incubated with compound for 30 minutes. […] Buffer conditions are 50 mM HEPES, pH 7.5, 10 mM MgCl2, 2 mM TCEP, 0.05% BGG and 0.01% Brij 35. The reaction is quenched with 5 μL of EDTA in detection buffer (15 mM [EDTA final]). Finally, a 5 μL TR-FRET detection mix is added to the quenched reaction, which includes Europium labeled anti-phospho-4E-BP1. […] Signal is a ratio of the Acceptor and Donor fluorescence. Inhibition constants are calculated via the Morrison equation.

[2] = biological target: T2, Cyclin Dependent Kinase 4/Cyclin D3 (CDK4-cycD3) (Homo sapiens, UniProt P11802); assay: CDK4-cycD3 TR-FRET (LANCE) enzyme assay; type: biochemical; conditions: Table O, enzymatic assay
T2 construct: purchased Carna Biosciences 04-105
T2 sequence (P11802 whole entry): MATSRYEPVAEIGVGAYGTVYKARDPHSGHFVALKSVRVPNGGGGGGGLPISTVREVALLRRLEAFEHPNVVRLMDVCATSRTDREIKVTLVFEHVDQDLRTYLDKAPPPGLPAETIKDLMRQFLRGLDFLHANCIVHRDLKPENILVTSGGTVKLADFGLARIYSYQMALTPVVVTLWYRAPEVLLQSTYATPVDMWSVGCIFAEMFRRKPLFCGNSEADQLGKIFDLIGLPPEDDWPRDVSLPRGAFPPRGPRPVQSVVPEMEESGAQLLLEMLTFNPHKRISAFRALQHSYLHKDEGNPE
T2 sequence (P30281 whole entry partner): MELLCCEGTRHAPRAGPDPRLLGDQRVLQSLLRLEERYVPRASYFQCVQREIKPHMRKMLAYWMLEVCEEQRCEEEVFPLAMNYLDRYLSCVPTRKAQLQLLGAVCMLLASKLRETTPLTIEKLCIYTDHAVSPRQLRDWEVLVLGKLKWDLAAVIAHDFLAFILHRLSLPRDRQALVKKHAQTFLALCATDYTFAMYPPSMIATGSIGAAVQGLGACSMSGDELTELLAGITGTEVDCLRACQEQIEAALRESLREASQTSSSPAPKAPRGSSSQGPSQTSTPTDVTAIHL
Procedure: as §1
(iii) CDK4-cycD3 TR-FRET (LANCE®)
as §2

[3] = system: OVISE (JCRB1043, CCNE1-amplified); assay: OVISE EdU incorporation cell proliferation assay (CDK2-dependent); type: cell-based; conditions: for IC50: cellular assay, read-out: CDK2 OVISE IC50; for FS SKOV-3/OVISE: fold selectivity; for improvement in CDK2 OVISE cell potency over Comparator C: in brackets after OVISE IC50, Comparator C 5.5 μM; for increased fold-selectivity SKOV-3/OVISE over Comparator C: (+) sign after FS SKOV-3/OVISE
Procedure: (§3) (i) OVISE and SKOV-3 EdU Incorporation Cell Proliferation Assays
(§4) Ovarian cancer cell proliferation is measured by incorporation of EdU (5-ethynyl-2′-deoxyuridine) into newly synthesized DNA. CDK2-dependent proliferation is determined using OVISE (JCRB1043, CCNE1-amplified) while CDK4/6-dependent effect is determined with SKOV-3 (ATCC HTB-77) which is not CCNE1-amplified.
(§5) Cells are plated in 384-well plates in RPMI medium supplemented with 10% FBS. Compounds are added at desired concentrations with a final DMSO content of 0.5%, and cells incubated at 37° C./5% CO2 for 16 hours. EdU (Life Technologies) is added to a final concentration of 0.5 μM and incubation continued for 8 hours, followed by fixation with 4% paraformaldehyde. […] Images are acquired using Yokogawa CQ1 imaging cytometer with a 10×objective. […] The IC50 for inhibition of cell division is determined by fitting the fraction of EdU-positive cells as a function of compound dose using a 4-parameter logistic model.

[4] = biological target: T3, Cyclin Dependent Kinase 2/Cyclin E1 (CDK2-cycE1) (Homo sapiens, UniProt P24941); assay: CDK2-cycE1 TR-FRET (LANCE) enzyme assay; type: biochemical; conditions: for Ki: enzymatic assay, read-out: CDK2 Ki; for FS CDK1/CDK2 / FS CDK4/CDK2: fold selectivity; for increased fold-selectivity CDK4/CDK2 over Comparator C: (+) sign after FS CDK4/CDK2;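 as to improvement in potency against CDK2 (Ki) over Comparator C: fold lower CDK2 Ki than comparator c (Ki 0.032 µM)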
T3 construct: purchased ProQinase 0050-0055-1
Procedure: as §1
(ii) CDK2-cycE1 TR-FRET (LANCE®)
as §2, with “anti-phospho-MBP.” for “anti-phospho-4E-BP1.”, “equation. Enzyme source of CDK2-cycE1 is ProQinase, catalog #: 0050-0055-1.” for “equation.”

[5] = system: SKOV-3 (ATCC HTB-77); assay: SKOV-3 EdU incorporation cell proliferation assay (CDK4/6-dependent); type: cell-based; conditions: Homo sapiens, cellular assay, read-out: CDK4/6 SKOV-3 IC50
Procedure: as §3, §4, §5

[6] = Table O, cellular SKOV-3 IC50 over OVISE IC50
[7] = Table O, enzymatic CDK1 Ki over CDK2 Ki
[8] = Table O, enzymatic CDK4 Ki over CDK2 Ki
[9] = Table Q, in brackets after CDK2 Ki, Comparator C 0.032 μM

T1 sequence (P06493 whole entry): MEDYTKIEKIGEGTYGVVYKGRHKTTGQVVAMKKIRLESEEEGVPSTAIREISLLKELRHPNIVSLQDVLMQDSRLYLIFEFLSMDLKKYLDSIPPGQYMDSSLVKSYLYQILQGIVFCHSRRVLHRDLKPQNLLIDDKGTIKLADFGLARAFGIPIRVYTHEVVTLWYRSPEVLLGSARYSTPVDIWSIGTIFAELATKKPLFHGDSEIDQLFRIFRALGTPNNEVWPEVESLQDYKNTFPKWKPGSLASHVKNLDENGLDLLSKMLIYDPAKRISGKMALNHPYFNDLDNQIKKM
T1 sequence (P20248 whole entry partner): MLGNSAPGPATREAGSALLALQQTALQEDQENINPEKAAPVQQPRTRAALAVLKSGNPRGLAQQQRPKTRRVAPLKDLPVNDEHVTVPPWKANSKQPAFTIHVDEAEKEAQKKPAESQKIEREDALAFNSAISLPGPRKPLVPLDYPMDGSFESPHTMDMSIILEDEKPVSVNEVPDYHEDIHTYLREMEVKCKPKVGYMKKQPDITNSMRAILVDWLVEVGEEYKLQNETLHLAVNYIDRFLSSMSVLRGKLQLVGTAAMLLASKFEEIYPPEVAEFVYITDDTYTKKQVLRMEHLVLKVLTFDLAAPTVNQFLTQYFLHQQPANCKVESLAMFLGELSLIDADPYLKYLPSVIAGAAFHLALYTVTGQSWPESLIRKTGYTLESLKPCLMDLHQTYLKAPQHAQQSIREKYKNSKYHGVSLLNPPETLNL

Row | Ki [1] | Ki [2] | Ki ([4]; Table O) | FS CDK1/CDK2 [4, 7] | FS CDK4/CDK2 [4, 8] | Ki ([4]; Table Q) | FS CDK1/CDK2 ([4]; Table Q, enzymatic) | FS CDK4/CDK2 ([4]; Table Q, enzymatic) | improvement in potency against CDK2 (Ki) over Comparator C [4, 9] | IC50 ([5]; SK-OV-3, Table O) | IC50 ([5]; SK-OV-3, Table Q) | SMILES | IC50 ([3]; Table O) | FS SKOV-3/OVISE [3, 6] | IC50 ([3]; Table Q) | FS SKOV-3/OVISE ([3]; Table Q, cellular) | improvement in CDK2 OVISE cell potency over Comparator C ([3]; Table Q) | increased fold-selectivity SKOV-3/OVISE over Comparator C ([3]; Table Q) | improvement in potency against CDK2 (Ki) over Comparator C [4] | increased fold-selectivity CDK1/CDK2 over Comparator C ([4]; Table Q, (+) sign after FS CDK1/CDK2) | increased fold-selectivity CDK4/CDK2 over Comparator C ([4]; Table Q)
1 | 550 nM | 590 nM | 14 nM | 39 | 42 | – | – | – | – | > 20000 nM | – | CNC(=O)c1ccc(Nc2cc([C@H]3CC[C@@H](OC(=O)NC4(C)CC4)C3)[nH]n2)c(C)n1 [Example 7A, (1R,3S)-3-(3-((2-methyl-6-(methylcarbamoyl)pyridin-3-yl)amino)-1H-pyrazol-5-yl)cyclopentyl (1-methylcyclopropyl)carbamate] | 1400 nM | >14 | – | – | – | – | – | – | –
2 | 270 nM | 280 nM | 11 nM | 25 | 25 | – | – | – | – | 5800 nM | – | O=C(NC1(C(F)(F)F)CC1)O[C@@H]1CC[C@H](c2cc(Nc3cccnn3)n[nH]2)C1 [Example 5, (1R,3S)-3-(3-(pyridazin-3-ylamino)-1H-pyrazol-5-yl)cyclopentyl (1-(trifluoromethyl)cyclopropyl)carbamate] | 460 nM | 13 | – | – | – | – | – | – | –
3 | 1400 nM | 2300 nM | 61 nM | 23 | 38 | – | – | – | – | > 20000 nM | – | O=C(NC1CCOCC1)O[C@@H]1CC[C@H](c2cc(Nc3cccnn3)n[nH]2)C1 [Example 3D, (1R,3S)-3-(3-(pyridazin-3-ylamino)-1H-pyrazol-5-yl)cyclopentyl (tetrahydro-2H-pyran-4-yl)carbamate] | 7900 nM | >2.5 | – | – | – | – | – | – | –

The remaining lines, values behind:

Row | SMILES | Ki [1] | Ki [2] | Ki ([4]; Table O) | FS CDK1/CDK2 [4, 7] | FS CDK4/CDK2 [4, 8] | Ki ([4]; Table Q) | FS CDK1/CDK2 ([4]; Table Q, enzymatic) | FS CDK4/CDK2 ([4]; Table Q, enzymatic) | improvement in potency against CDK2 (Ki) over Comparator C [4, 9] | IC50 ([5]; SK-OV-3, Table O) | IC50 ([5]; SK-OV-3, Table Q) | IC50 ([3]; Table O) | FS SKOV-3/OVISE [3, 6] | IC50 ([3]; Table Q) | FS SKOV-3/OVISE ([3]; Table Q, cellular) | improvement in CDK2 OVISE cell potency over Comparator C ([3]; Table Q) | increased fold-selectivity SKOV-3/OVISE over Comparator C ([3]; Table Q) | improvement in potency against CDK2 (Ki) over Comparator C [4] | increased fold-selectivity CDK1/CDK2 over Comparator C ([4]; Table Q, (+) sign after FS CDK1/CDK2) | increased fold-selectivity CDK4/CDK2 over Comparator C ([4]; Table Q)
4 | CC(C)NC(=O)O[C@@H]1CC[C@H](c2cc(Nc3cccn(C)c3=O)n[nH]2)C1 [Example 2BB, (1R,3S)-3-(3-((1-methyl-2-oxo-1,2-dihydropyridin-3-yl)amino)-1H-pyrazol-5-y1)cyclopenty1 isopropylcarbamate] | 32000 nM | 6900 nM | 1100 nM | 29 | 6.3 | 1100 nM | 29 | 6.3 | 0.3 fold | > 20000 nM | > 20000 nM | > 20000 nM | 1.0 | > 20000 nM | 1.0 | 0.28 fold | – | – | – | –
5 | CC(C)NC(=O)O[C@@H]1CC[C@H](c2cc(Nc3ccc(-n4cccn4)cn3)n[nH]2)C1 [Example 2DD, (1R,3S)-3-(3-((5-(1H-pyrazol-1-yl)pyridin-2-yl)amino)-1H-pyrazol-5-yl)cyclopentyl isopropylcarbamate] | 680 nM | 350 nM | 13 nM | 52 | 27 | 13 nM | 52 | 27 | – | > 20000 nM | 14000 nM | 610 nM | 23 | – | 23 | 9 fold | (+) (The (+) sign in Table Q signifies desirable increased fold-selectivity of the exemplary compounds over Comparator C) | 2.5 fold | (+) (The (+) sign in Table Q signifies desirable increased fold-selectivity of the exemplary compounds over Comparator C) | (+) (The (+) sign in Table Q signifies desirable increased fold-selectivity of the exemplary compounds over Comparator C)
6 | CC[C@H](C)NC(=O)O[C@@H]1CC[C@H](c2cc(Nc3cccnn3)n[nH]2)C1 (single isomer, unassigned) [Example 3B] | 200 nM | 290 nM | 8.5 nM | 24 | 34 | – | – | – | – | 10000 nM | – | 570 nM | 18 | – | – | – | – | – | – | –
7 | COc1ncc(Nc2cc([C@H]3CC[C@@H](OC(=O)NC(C)C)C3)[nH]n2)cn1 [Example 2FF, (1R,3S)-3-(3-((2-methoxypyrimidin-5-yl)amino)-1H-pyrazol-5-yl)cyclopentyl isopropylcarbamate] | 320 nM | 950 nM | 14 nM | 23 | 68 | – | – | – | – | > 20000 nM | – | 1200 nM | >17 | – | – | – | – | – | – | –
8 | CC(C)NC(=O)O[C@@H]1CC[C@H](c2cc(Nc3ncnc(N(C)C)n3)n[nH]2)C1 [Example 2Q, (1R,3S)-3-(3-((4-(dimethylamino)-1,3,5-triazin-2-yl)amino)-1H-pyrazol-5-yl)cyclopentyl isopropylcarbamate] | 670 nM | 1500 nM | 41 nM | 16 | 37 | 41 nM | 16 | 37 | 0.8 fold | > 20000 nM | > 20000 nM | 2400 nM | >8.3 | – | > 8.3 | 2.3 fold | (+) (The (+) sign in Table Q signifies desirable increased fold-selectivity of the exemplary compounds over Comparator C) | – | – | (+) (The (+) sign in Table Q signifies desirable increased fold-selectivity of the exemplary compounds over Comparator C)
9 | Cc1cc(=O)n(C)cc1Nc1cc([C@H]2CC[C@@H](OC(=O)NC(C)C)C2)[nH]n1 [Example 2S, (1R,3S)-3-(3-((1,4-dimethyl-6-oxo-1,6-dihydropyridin-3-yl)amino)-1H-pyrazol-5-yl)cyclopentyl isopropylcarbamate] | 7400 nM | 12000 nM | 890 nM | 8.3 | 13 | 890 nM | 8.3 | 13 | 0.4 fold | > 20000 nM | > 20000 nM | > 20000 nM | 1.0 | > 20000 nM | 1.0 | 0.28 fold | – | – | – | (+) (The (+) sign in Table Q signifies desirable increased fold-selectivity of the exemplary compounds over Comparator C)
